Consider 1 compound from patent US20070134261A1, “Effectors of innate immunity” (priority 2001, published 2007).

In experiment [1] the test system is THP-1 cells (human monocytes). Put plainly: Induction of IL-8 in undifferentiated THP-1 cells. The experiment is classed as cell-based. On the procedure: The murine macrophage cell line RAW 264.7, THP-1 cells (human monocytes), a human epithelial cell line (A549), human bronchial epithelial cells (16HBEo14), and whole human blood were used. HBE cells were grown in MEM with Earle's. THP-1 cells were grown and maintained in RPMI 1640 medium. The RAW and A549 cell lines were maintained in DMEM supplemented with 10% fetal calf serum. […] DMEM was aspirated from cells grown overnight and replaced with fresh medium. After incubation of the cells with peptide, the release of chemokines into the culture supernatant was determined by ELISA (R&D Systems, Minneapolis, Minn.).

Experiment [2] has as its system A549 human epithelial cells. As to the kind of experiment: LPS induced IL-8 production in A549 cells (ELISA). The experiment is classed as cell-based. Conditions: 100 ng/ml E. coli O111:B4 LPS, 24 hours. On the technique in general: ELISA stands for enzyme-linked immunosorbent assay.

For `CC[C@H](C)[C@H](N)C(=O)N[C@@H](CC(C)C)C(=O)N1CCC[C@H]1C(=O)N[C@@H](Cc1c[nH]c2ccccc12)C(=O)N[C@@H](CCCCN)C(=O)N[C@@H](Cc1c[nH]c2ccccc12)C(=O)N1CCC[C@H]1C(=O)N[C@@H](Cc1c[nH]c2ccccc12)C(=O)N[C@@H](Cc1c[nH]c2ccccc12)C(=O)N1CCC[C@H]1C(=O)N[C@@H](Cc1c[nH]c2ccccc12)C(=O)N[C@@H](CCCNC(=N)N)C(=O)N[C@@H](CCCNC(=N)N)C(N)=O` [SEQ ID NO: 2], the “induction of IL-8” value in experiment [1] was “significantly induced IL-8”. The “Inhibition of IL-8” value is 6.8 ± 9.6% in experiment [2] (SEQ ID NO: 2 0.1 μg/ml); 12.8 ± 24.5% in experiment [2] (SEQ ID NO: 2 1 μg/ml); 29.0 ± 26.0% in experiment [2] (SEQ ID NO: 2 10 μg/ml); 39.8 ± 1.6% in experiment [2] (SEQ ID NO: 2 50 μg/ml); 45.0 ± 3.5% in experiment [2] (SEQ ID NO: 2 100 μg/ml).
